Assay results as given in patent US20250066350A1, “AROMATIC HETEROCYCLE-SUBSTITUTED COMPOUNDS, AND PREPARATION METHOD THEREFOR AND USE THEREOF” (Innovstone Therapeutics Limited, priority 2021, published 2025).
Where two headings read alike, the source gives them in different places.

Key:
SNU-601 cells = assay: SNU-601 cell proliferation experiment (CellTiter-Glo, intracellular ATP); format: cell-based; settings: SNU-601 human gastric cancer cells, 5 days, read-out: IC50 for inhibition of SNU-601 cell proliferation
Description: The following method is used to evaluate the inhibitory effect of the compounds of the present disclosure on SNU-601 cell proliferation according to the IC50 values by means of detecting the intracellular ATP content. The experimental method is briefly described as follows:
1. SNU-601, human gastric cancer tumor cells (Co-bioer, CBP60507)
SNU-601 cells were cultured in RPMI 1640 medium containing 10% FBS and passaged 2 to 3 times a week at a split ratio of 1:5 or 1:10. During passage, the cells were trypsinized and transferred to a centrifuge tube. The tube was centrifuged at 1000 rpm for 5 minutes, the supernatant medium was discarded, and fresh medium was added to resuspend the cells. 195 μL of cell suspension at a density of 5.128×10^3 cells/mL was added to a 96-well cell culture plate, and 200 μL of complete medium only was added to the periphery wells of the 96-well plate. The culture plate was incubated in an incubator for 24 hours (37° C., 5% CO2).
The sample to be tested was diluted to 2 mM with DMSO, diluted 3-fold serially to 10 concentrations. Blank and control wells were set. 10 μL of the solution containing the compound to be tested prepared in gradient concentrations was added to 50 μL of fresh medium. 5 μL of the above culture medium solution containing the compound was added to the culture plate. The culture plate was incubated in an incubator for 5 days (37° C., 5% CO2). 50 μL of CellTiter-Glo reagent was added to each well of the 96-well cell culture plate after discarding 100 μL/well, and the plate was shaken at room temperature in the dark for 10 min. The chemiluminescent signal values were read in PHERAstar, and data were processed using GraphPad software.
The inhibitory effect of the compounds of the present invention on SNU-601 cell proliferation can be determined by the test described above, and the measured IC50 values are shown in Table 3.

ATR enzyme = ATR enzyme (Homo sapiens (Human), UniProt Q13535); assay: Inhibitory effect on ATR enzyme (HTRF, phospho-P53); format: biochemical; settings: 90 minutes incubation, 150 nM ATP final; read-out: IC50 for ATR enzyme inhibition
Description: Test Example 1. Inhibitory Effect of Compounds of the Present Invention on ATR Enzyme
The following method is used to determine the inhibitory effect of the compounds of the present invention on the ATR enzyme. The experimental method is briefly described as follows:
1. ATR enzyme (Eurofins Pharma Discovery Services, 14-953M)
2. GST-tagged P53 protein (Eurofins Pharma Discovery Services, 14-952M)
15 nM ATR enzyme, 80 nM P53 protein, 300 nM ATP (the final concentrations were 40 nM and 150 nM, respectively), and small molecule compounds of various concentrations (the final concentrations (nM) of the ten points were 2985.0, 895.5, 298.5, 110.56, 33.17, 11.06, 4.09, 1.23, 0.41 and 0.15, respectively, and the final dimethyl sulfoxide concentration was 0.498%) were mixed and incubated at room temperature for 90 minutes. 10 μL of 2× cocktail buffer was added to the mixture of ATR, compound and substrate in the assay plate (anti-phospho-p53-Eu and anti-GST-d2 were diluted in the assay buffer). The resulting mixture was centrifuged at 1000 rpm for 30 seconds, and incubated overnight at 4° C. in the dark (a total of 20 μl in each well). The FRET signal (endpoint) was measured in the Envision instrument (HTRF 665/612 ratio was calculated at 665 nm emission and 612 nm emission). Data were processed using GraphPad software.
The inhibitory activity of the compounds of the present invention on the ATR enzyme can be determined by the test described above, and the measured IC50 values are shown in Table 1.

Chain of ATR enzyme (Q13535 whole entry): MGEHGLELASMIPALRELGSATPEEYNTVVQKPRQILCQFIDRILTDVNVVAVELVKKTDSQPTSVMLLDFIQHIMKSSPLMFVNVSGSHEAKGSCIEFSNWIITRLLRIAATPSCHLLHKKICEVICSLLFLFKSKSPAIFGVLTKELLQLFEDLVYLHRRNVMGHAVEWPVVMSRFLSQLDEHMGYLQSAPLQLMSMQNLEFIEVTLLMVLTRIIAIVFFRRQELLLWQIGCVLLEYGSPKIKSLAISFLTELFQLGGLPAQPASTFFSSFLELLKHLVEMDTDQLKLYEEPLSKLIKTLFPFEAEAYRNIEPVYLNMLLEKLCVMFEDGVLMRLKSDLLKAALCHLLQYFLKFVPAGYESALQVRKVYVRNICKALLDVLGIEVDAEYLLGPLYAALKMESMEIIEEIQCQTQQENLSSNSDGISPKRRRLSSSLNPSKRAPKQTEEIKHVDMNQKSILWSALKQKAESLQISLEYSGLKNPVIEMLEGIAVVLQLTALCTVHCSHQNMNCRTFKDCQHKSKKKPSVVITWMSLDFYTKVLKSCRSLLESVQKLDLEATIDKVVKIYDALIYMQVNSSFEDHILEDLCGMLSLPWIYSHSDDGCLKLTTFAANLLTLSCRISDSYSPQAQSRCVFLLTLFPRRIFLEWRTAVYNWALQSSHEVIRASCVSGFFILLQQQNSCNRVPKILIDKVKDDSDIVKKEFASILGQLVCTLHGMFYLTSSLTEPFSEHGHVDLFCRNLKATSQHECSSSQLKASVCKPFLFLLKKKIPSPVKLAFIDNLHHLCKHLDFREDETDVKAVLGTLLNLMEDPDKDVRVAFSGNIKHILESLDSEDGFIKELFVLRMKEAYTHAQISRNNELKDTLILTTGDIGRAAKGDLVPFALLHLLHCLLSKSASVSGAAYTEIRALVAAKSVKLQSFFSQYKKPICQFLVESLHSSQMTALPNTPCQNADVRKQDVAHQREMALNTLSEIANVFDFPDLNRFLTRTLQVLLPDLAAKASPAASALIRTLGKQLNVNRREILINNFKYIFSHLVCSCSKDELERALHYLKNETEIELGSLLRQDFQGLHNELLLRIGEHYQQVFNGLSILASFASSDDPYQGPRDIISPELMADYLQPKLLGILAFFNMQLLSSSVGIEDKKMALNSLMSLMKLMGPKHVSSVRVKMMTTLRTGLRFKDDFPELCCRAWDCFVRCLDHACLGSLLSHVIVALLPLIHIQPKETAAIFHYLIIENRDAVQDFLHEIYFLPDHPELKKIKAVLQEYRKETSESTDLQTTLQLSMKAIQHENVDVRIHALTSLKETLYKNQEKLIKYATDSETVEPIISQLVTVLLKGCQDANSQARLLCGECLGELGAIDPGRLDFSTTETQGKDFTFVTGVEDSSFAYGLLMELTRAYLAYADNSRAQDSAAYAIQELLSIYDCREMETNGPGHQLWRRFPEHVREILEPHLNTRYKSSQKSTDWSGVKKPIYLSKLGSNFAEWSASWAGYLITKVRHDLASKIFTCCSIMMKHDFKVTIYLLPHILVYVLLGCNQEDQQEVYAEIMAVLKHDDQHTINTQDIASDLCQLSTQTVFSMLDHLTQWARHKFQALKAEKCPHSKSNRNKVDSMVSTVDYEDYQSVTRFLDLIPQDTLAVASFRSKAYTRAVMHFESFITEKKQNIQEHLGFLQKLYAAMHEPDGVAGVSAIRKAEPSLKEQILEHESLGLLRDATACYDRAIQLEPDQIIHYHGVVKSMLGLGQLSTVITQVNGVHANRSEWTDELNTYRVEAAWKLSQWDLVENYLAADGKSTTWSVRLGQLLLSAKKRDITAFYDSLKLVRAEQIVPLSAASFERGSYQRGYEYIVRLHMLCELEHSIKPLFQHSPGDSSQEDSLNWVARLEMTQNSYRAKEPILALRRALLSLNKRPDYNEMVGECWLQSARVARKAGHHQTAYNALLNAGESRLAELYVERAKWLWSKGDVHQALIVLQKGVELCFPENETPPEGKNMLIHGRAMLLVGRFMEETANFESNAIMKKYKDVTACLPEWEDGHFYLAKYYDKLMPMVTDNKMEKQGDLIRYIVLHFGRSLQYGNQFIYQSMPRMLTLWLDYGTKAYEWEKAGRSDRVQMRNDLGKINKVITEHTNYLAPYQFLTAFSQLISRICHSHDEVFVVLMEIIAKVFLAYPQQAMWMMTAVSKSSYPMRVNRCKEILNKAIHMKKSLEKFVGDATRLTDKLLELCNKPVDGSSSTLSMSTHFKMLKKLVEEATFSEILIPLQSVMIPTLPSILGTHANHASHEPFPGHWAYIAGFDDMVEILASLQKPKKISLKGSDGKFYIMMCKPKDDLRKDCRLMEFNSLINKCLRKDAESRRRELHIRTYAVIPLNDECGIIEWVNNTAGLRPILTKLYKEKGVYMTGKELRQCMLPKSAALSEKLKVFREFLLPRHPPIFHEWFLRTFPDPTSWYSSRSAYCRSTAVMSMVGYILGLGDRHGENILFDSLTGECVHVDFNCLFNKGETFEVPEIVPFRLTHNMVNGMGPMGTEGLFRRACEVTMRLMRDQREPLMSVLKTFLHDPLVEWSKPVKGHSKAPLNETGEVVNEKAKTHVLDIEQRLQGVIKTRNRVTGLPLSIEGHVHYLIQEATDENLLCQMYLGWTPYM
Chain of ATR enzyme (Q8WXE1 whole entry partner): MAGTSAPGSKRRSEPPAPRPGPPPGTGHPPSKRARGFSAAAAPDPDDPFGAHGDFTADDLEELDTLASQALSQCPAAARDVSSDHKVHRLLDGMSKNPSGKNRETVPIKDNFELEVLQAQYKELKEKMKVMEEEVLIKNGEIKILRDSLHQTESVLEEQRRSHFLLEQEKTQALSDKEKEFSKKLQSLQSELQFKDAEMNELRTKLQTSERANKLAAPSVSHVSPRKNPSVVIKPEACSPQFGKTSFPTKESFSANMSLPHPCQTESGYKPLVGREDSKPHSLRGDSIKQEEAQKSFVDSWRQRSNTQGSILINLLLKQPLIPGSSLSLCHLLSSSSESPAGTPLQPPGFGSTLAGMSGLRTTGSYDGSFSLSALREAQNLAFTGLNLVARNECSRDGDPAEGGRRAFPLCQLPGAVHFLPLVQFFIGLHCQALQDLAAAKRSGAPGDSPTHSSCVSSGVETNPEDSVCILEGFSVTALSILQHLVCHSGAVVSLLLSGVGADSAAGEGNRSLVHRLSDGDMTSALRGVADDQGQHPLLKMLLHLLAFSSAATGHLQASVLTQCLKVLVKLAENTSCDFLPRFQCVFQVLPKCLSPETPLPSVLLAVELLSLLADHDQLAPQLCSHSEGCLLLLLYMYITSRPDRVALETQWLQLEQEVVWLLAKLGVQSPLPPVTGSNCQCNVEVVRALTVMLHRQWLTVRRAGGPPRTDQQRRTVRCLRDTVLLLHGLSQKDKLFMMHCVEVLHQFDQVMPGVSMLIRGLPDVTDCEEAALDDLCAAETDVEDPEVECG

| SMILES | IC50 (SNU-601 cells; 120 h) | IC50 (ATR enzyme) | IC50 (SNU-601 cells) |
| --- | --- | --- | --- |
| CC(=O)Nc1ccc(-c2cc(N3CCOC[C@H]3C)nc3c2cnn3-c2cc[nH]n2)cc1 [Example 30, (R)-N-(4-(6-(3-methylmorpholinyl)-1-(1H-pyrazolyl-3-yl)-1H-pyrazolyl[3,4-b]pyridin-4-yl)phenyl)acetamide] | 10 to 100 nM | ≤ 10 nM | – |
| CC(=O)C(=O)Nc1ccc(-c2cc(N3CCOC[C@H]3C)nc3c2cnn3-c2cc[nH]n2)cc1 [Example 31, (R)-N-(4-(6-(3-methylmorpholino)-1-(1H-pyrazol-3-yl)-1H-pyrazolo[3,4-b]pyridin-4-yl)phenyl)-2-oxopropanamide] | 10 to 100 nM | ≤ 10 nM | – |
| C[C@@H]1COCCN1c1cc(-c2ccc(NC(=O)C3CCC3)cc2)c2cnn(-c3cc[nH]n3)c2n1 [Example 32, (R)-N-(4-(6-(3-methylmorpholinyl)-1-(1H-pyrazolyl-3-yl)-1H-pyrazolyl[3,4-b]pyridin-4-yl)phenyl)cyclobutanecarboxamide] | 10 to 100 nM | ≤ 10 nM | – |
| C[C@@H]1COCCN1c1cc(-c2ccc(NC(=O)NC3CC3)cc2)c2cnn(-c3cc[nH]n3)c2n1 [Example 33, (R)-1-cyclopropyl-3-(4-(6-(3-methylmorpholinyl)-1-(1H-pyrazolyl-3-yl)-1H-pyrazolyl[3,4-b]pyridin-4-yl)phenyl)urea] | 10 to 100 nM | ≤ 10 nM | – |
| C[C@@H]1COCCN1c1cc(-c2cccc(N3CCCC3=O)c2)c2cnn(-c3cc[nH]n3)c2n1 [Example 58] | – | ≤ 10 nM | 10 to 100 nM |
| C[C@@H]1COCCN1c1cc(-c2ccc(N3CCCC3=O)cc2F)c2cnn(-c3cc[nH]n3)c2n1 [Example 59, (R)-1-(3-fluoro-4-(6-(3-methylmorpholino)-1-(1H-pyrazol-3-yl)-1H-pyrazolo[3,4-b]pyridin-4-yl)phenyl)pyrrolidin-2-one] | ≤ 10 nM | ≤ 10 nM | – |
| C[C@@H]1COCCN1c1cc(-c2ccc(N3CCCN(C)C3=O)cc2)c2cnn(-c3cc[nH]n3)c2n1 [Example 62] | – | ≤ 10 nM | 10 to 100 nM |
| C[C@@H]1COCCN1c1cc(-c2ccc(N3CCCNC3=O)cc2)c2cnn(-c3cc[nH]n3)c2n1 [Example 146] | – | ≤ 10 nM | 10 to 100 nM |
| CC(=O)Nc1cccc(-c2cc(N3CCOC[C@H]3C)nc3c2cnn3-c2cc[nH]n2)c1 [Example 149] | 10 to 100 nM | ≤ 10 nM | – |
| CCC(=O)Nc1ccc(-c2cc(N3CCOC[C@H]3C)nc3c2cnn3-c2cc[nH]n2)cc1 [Example 150] | – | ≤ 10 nM | 10 to 100 nM |
| C[C@@H]1COCCN1c1cc(-c2ccc(NC(=O)C3CCOC3)cc2)c2cnn(-c3cc[nH]n3)c2n1 (stereo partly drawn) [Example 154] | – | ≤ 10 nM | 10 to 100 nM |
| C[C@@H]1COCCN1c1cc(-c2ccc(NC(=O)C3CC(N)C3)cc2)c2cnn(-c3cc[nH]n3)c2n1 (stereo partly drawn) [Example 158] | – | ≤ 10 nM | 10 to 100 nM |
| C[C@@H]1COCCN1c1cc(-c2ccc(N3CC4CCC(O4)C3=O)cc2F)c2cnn(-c3cc[nH]n3)c2n1 (stereo partly drawn) [Example 199] | 10 to 100 nM | – | – |
| C[C@@H]1COCCN1c1cc(-c2ccc(NC(=O)N3CCCC3)cc2)c2cnn(-c3cc[nH]n3)c2n1 [Example 207] | 10 to 100 nM | – | – |
| C[C@@H]1COCCN1c1cc(C#CC2CCCNC2)c2cnn(-c3ccn[nH]3)c2n1 (stereo partly drawn) [Example 209] | 10 to 100 nM | – | – |
| C[C@@H]1COCCN1c1cc(-c2ccc(NC(=O)C3CCN(C)C3)cc2)c2cnn(-c3cc[nH]n3)c2n1 (stereo partly drawn) [Example 213] | 10 to 100 nM | – | – |
| CNC(=O)N(C)c1ccc(-c2cc(N3CCOC[C@H]3C)nc3c2cnn3-c2cc[nH]n2)cc1 [Example 215] | 10 to 100 nM | – | – |
| C[C@@H]1COCCN1c1cc(-c2ccc(NC(=O)C(F)F)cc2)c2cnn(-c3cc[nH]n3)c2n1 [Example 217] | 10 to 100 nM | – | – |
| C[C@@H]1COCCN1c1cc(-c2ccc(N3CCCCC3=O)cc2C(F)(F)F)c2cnn(-c3cc[nH]n3)c2n1 [Example 242] | 10 to 100 nM | – | – |
| C[C@@H]1COCCN1c1cc(-c2ccc(-c3ccnn3C)cc2F)c2cnn(-c3cc[nH]n3)c2n1 [Example 258] | 10 to 100 nM | – | – |
| C[C@@H]1COCCN1c1cc(-c2cc(C#N)c(N3CCCCC3=O)cc2F)c2cnn(-c3cc[nH]n3)c2n1 [Example 259] | 10 to 100 nM | – | – |
